Experimental data reported in the supplement of paper PMC10307832.

Experiments:
Assay in all cases: relative viability (nuclei count vs DMSO), 5 days (fraction); higher = more cells survive
Decitabine + Alpelisib = compound: Nc1ncn([C@H]2C[C@H](O)[C@@H](CO)O2)c(=O)n1 [Decitabine] + Cc1nc(NC(=O)N2CCC[C@H]2C(N)=O)sc1-c1ccnc(C(C)(C)C(F)(F)F)c1 [Alpelisib] (partner 2 µM)
Method in brief: (§1)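 Relative viability divides the nuclei count in treated wells by that in vehicle wells. Lung cancer cell lines were seeded in 1536-well plates, dosed by pin tool the next day, and fixed and stained after 5 days in one step with final 0.05% Triton X-100, 1% formaldehyde and 1 ug/ml Hoechst. Dosing was a single drug or a fixed anchor-drug dose plus five library-drug doses (not always all listed) in √10 steps, and values are medians of duplicate plates imaged at 4×.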

Cediranib + Foretinib = compound: COc1cc2c(Oc3ccc4[nH]c(C)cc4c3F)ncnc2cc1OCCCN1CCCC1 [Cediranib] + COc1cc2c(Oc3ccc(NC(=O)C4(C(=O)Nc5ccc(F)cc5)CC4)cc3F)ccnc2cc1OCCCN1CCOCC1 [Foretinib] (partner 0.25 µM)
Method in brief: as §1

Decitabine + Pemetrexed = compound: Nc1ncn([C@H]2C[C@H](O)[C@@H](CO)O2)c(=O)n1 [Decitabine] + Nc1nc2[nH]cc(CCc3ccc(C(=O)N[C@@H](CCC(=O)O)C(=O)O)cc3)c2c(=O)[nH]1 [Pemetrexed] (partner 0.2 µM)
Method in brief: as §1

Halofuginone + Lapatinib = compound: O=C(C[C@H]1NCCC[C@@H]1O)Cn1cnc2cc(Br)c(Cl)cc2c1=O (racemic) [Halofuginone] + CS(=O)(=O)CCNCc1ccc(-c2ccc3ncnc(Nc4ccc(OCc5cccc(F)c5)c(Cl)c4)c3c2)o1 [Lapatinib] (partner 2 µM)
Method in brief: as §1

Cell Line	relative viability (Decitabine + Alpelisib; first compound 0.04 µM)	relative viability (Decitabine + Alpelisib; first compound 0.1265 µM)	relative viability (Decitabine + Alpelisib; first compound 0.4 µM)	relative viability (Decitabine + Alpelisib; first compound 1.265 µM)	relative viability (Decitabine + Alpelisib; first compound 4 µM)	relative viability (Cediranib + Foretinib; first compound 0.04 µM)	relative viability (Cediranib + Foretinib; first compound 0.4 µM)	relative viability (Cediranib + Foretinib; first compound 1.265 µM)	relative viability (Cediranib + Foretinib; first compound 4 µM)	relative viability (Decitabine + Pemetrexed; first compound 0.04 µM)	relative viability (Decitabine + Pemetrexed; first compound 0.1265 µM)	relative viability (Decitabine + Pemetrexed; first compound 0.4 µM)	relative viability (Decitabine + Pemetrexed; first compound 1.265 µM)	relative viability (Decitabine + Pemetrexed; first compound 4 µM)	relative viability (Halofuginone + Lapatinib; first compound 0.001 µM)	relative viability (Halofuginone + Lapatinib; first compound 0.003162 µM)	relative viability (Halofuginone + Lapatinib; first compound 0.01 µM)	relative viability (Halofuginone + Lapatinib; first compound 0.03162 µM)	relative viability (Halofuginone + Lapatinib; first compound 0.1 µM)	relative viability (Cediranib + Foretinib; first compound 0.1265 µM)
BEN	0.943	0.908	0.651	0.564	0.426	0.745	0.707	0.344	0.682	0.775	0.757	0.632	0.663	0.553	0.782	0.881	0.861	0.588	0.443	–
NCI-H23	0.604	0.391	0.275	0.218	0.238	1.07	0.939	0.863	1.03	0.572	0.546	0.322	0.294	0.272	1.28	1.03	1.2	0.713	0.707	–
NCI-H1975	0.414	0.357	0.318	0.292	0.275	0.952	0.944	1.05	1.04	0.247	0.205	0.182	0.209	0.188	0.881	0.873	0.766	0.692	0.385	1.03
COR-L 105	0.763	0.873	0.717	0.427	0.306	1.04	0.931	0.904	1.22	1.01	1.08	0.882	0.698	0.668	0.438	0.39	0.317	0.374	0.285	1.38
LK-2	–	0.986	0.73	0.553	0.504	1.43	1.23	1.19	1.01	0.194	0.256	0.223	0.245	0.211	1.01	0.801	0.951	0.891	0.778	0.875
EKVX	0.635	0.565	0.522	0.393	0.318	0.67	0.74	0.705	0.751	0.281	0.369	0.255	0.205	0.194	0.22	0.213	0.183	0.203	0.202	0.418
NCI-H2009	1	0.88	0.593	0.413	0.303	1.24	1.24	1.25	1.17	0.902	0.727	0.439	0.357	0.341	1.06	1.01	0.887	0.83	0.409	1.15
NCI-H838	0.715	0.461	0.409	0.396	0.276	1.02	0.994	1.01	1.05	0.225	0.236	0.2	0.19	0.198	1.25	1.16	0.891	0.748	0.164	1.02
NCI-H2085	0.767	0.617	0.554	0.379	0.433	0.919	0.861	0.759	0.923	0.782	0.807	0.511	0.513	0.364	0.769	0.762	0.695	0.778	0.649	0.942
